How the values were obtained:
[1] = test system: model rabbits with partially removed meniscus; test: Model rabbits with partially removed meniscus (osteoarthritis model), lesion area of articular cartilage; type: in vivo, rabbit; conditions: continuous administration to the knee joint by osmotic pump, 3.0 or 30 μg/mL, 14 days after surgery
Text: Twelve-week old male NZW rabbits (Oriental Yeast Co., Ltd.) were acclimated for five days, and then under isoflurane anesthesia, the lateral skin of the left knee joint was incised and the lateral collateral ligament and the sesamoid ligament were surgically removed to expose the lateral meniscus. The center of the lateral meniscus was excised at a width of 3 to 4 mm to produce an osteoarthritis model (Kikuchi T et al., Osteoarth Cart 1999; 4(2): 99-110). The tips of the three polyethylene tubes (PE60, Nippon Becton Dickinson Company) connected to three osmotic pumps (2ML1, Durect, Road Cupertino, Calif., US) that were embedded subcutaneously in the left femur were placed into the joint, and the drug solution was continuously administered to the knee joint. Each osmotic pump was filled with any of 1) vehicle control (50% dimethyl sulfoxide/50% physiological saline v/v); 2) Compound 7 at 3.0 μg/mL; or 3) Compound 7 at 30 μg/mL. […] Images of the surface structure of the lower leg bone were taken on a digital microscope (VHX-2000, Keyence Corporation), the area of the Indian ink-positive lesion site and the area of the entire lateral condyle were determined, and the proportion of the lesion site occupying the entire lateral condyle was calculated (FIG. 6).

[2] = test system: rabbit articular chondrocytes; test: Suppression of terminal differentiation of rabbit articular chondrocytes (alkaline phosphatase and alizarin red staining); type: cell-based; conditions: BMP-2 100 ng/mL, Compound 7 10^−7 to 10^−5 mol/L, PTH(1-34) 10^−10 to 10^−7 mol/L
Procedure: NZW rabbits (4-week old, Oriental Yeast Co., Ltd.) were euthanized, and then the articular cartilage of the lower leg bone was collected, and transferred to a 50-mL test tube (Nippon Becton Dickinson Company). PBS (Nacalai Tesque, Inc.) containing 1% trypsin (Wako Pure Chemical Industries, Ltd.) was added to this, and the soft tissue was digested at 37° C. for one hour. This was followed by centrifugation at 1,200 rpm for five minutes, then supernatant was removed and PBS(−) was added to suspend the cartilage tissue. This was centrifuged at 1,200 rpm for five minutes, followed by removal of the supernatant, and washed three times by suspending in PBS(−). This was centrifuged at 1,200 rpm for five minutes, and then the cell pellet was digested by treatment with DMEM (Life Technologies Japan, Ltd.) containing 0.2% Type II collagenase (CLS-2, Worthington Biochemical Corp.) at 37° C. for three hours. Fetal bovine serum (Life Technologies Japan, Ltd.) was added at 10% v/v to stop the reaction, and this was vigorously pipetted using a 10-mL pipette (Nippon Becton Dickinson Company) to isolate the chondrocytes. This was centrifuged at 1,200 rpm for five minutes, followed by removal of the supernatant, and washed three times by suspending in 10% FCS-containing DMEM, and the chondrocytes were seeded at 1×10^4 cells/well on an I-type collagen-coated 96-well culture plate (AGC TECHNO GLASS CO., LTD.). Medium exchange was performed three times a week; and after the cells reached confluency, they were cultured in DMEM containing 100 μg/mL L-ascorbic acid phosphate magnesium salt n-hydrate (Wako Pure Chemical Industries, Ltd.), 10 mmol/L β-glycerophosphate pentahydrate (Wako Pure Chemical Industries, Ltd.) and 10% FCS. The following conditions were used to culture the cells, and alkaline phosphatase staining (cultured for 14 days) and alizarin red staining (cultured for 21 days) were performed to evaluate terminal differentiation of chondrocytes.
Alkaline phosphatase staining was performed by discarding the medium, then washing the chondrocytes once with 200 mmol/L Tris-HCl pH8.2 buffer, staining the cells according to the protocol supplied with the alkaline phosphatase staining kit (Vector Red Alkaline Phosphatase Substrate Kit I, Vector Laboratories, Inc.), and taking photographs with an inverted microscope (Nikon Corporation) (4× objective).
Alizarin red staining was performed by discarding the medium, then washing the chondrocytes twice with PBS, fixing the cells using 100% ethanol (Wako Pure Chemical Industries Ltd.) for 15 minutes, discarding the ethanol, and then staining with 1% alizarin red S (Wako Pure Chemical Industries Ltd.) for 15 minutes, followed by washing with distilled water; and photographs were taken with an inverted microscope.

human PTH1R = molecular target: T1, human PTH1R (Homo sapiens, UniProt Q03431); test: In vitro cAMP signal activity via the human PTH1R (HKRK-B7 cells); type: cell-based; conditions: concentration at 20% cAMP signaling activity, human PTH(1-34) at 100 nM = 100%
T1 construct: expressed in transfected cells; host or cells: HKRK-B7 (LLC-PK1 porcine kidney cells stably expressing human PTH1R)
T1 sequence (Q03431 27-593): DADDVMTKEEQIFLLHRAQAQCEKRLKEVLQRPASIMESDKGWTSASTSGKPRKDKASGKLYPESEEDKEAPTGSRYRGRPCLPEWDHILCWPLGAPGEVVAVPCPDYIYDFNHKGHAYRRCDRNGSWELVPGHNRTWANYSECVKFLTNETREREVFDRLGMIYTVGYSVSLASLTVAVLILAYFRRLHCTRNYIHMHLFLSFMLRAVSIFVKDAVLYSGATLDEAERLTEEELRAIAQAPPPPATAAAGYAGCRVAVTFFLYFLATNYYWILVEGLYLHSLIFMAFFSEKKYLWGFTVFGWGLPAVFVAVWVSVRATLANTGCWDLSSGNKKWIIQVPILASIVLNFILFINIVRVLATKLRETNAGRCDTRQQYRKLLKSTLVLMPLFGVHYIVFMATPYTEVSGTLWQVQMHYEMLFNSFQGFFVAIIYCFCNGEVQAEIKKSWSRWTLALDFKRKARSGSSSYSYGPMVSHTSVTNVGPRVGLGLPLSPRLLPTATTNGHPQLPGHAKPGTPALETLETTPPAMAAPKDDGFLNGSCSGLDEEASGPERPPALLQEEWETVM
Procedure: Human PTH(1-34) and calcitonin were purchased from Peptide Institute, Inc. (Osaka, Japan), dissolved in 10 mM acetic acid to 1 mM and stored in a −80° C. freezer.
Cells were cultured in Dulbecco's modified Eagle's medium (DMEM) supplemented with 10% fetal bovine serum (Hyclone), 100 units/ml penicillin G and 100 μg/ml streptomycin sulfate (Invitrogen Corp) at 37° C. in a humidified atmosphere containing 5% CO2.
cAMP signal transduction analysis utilized LLC-PK1 cells not expressing the PTH1R, and HKRK-B7 cells, that is, LLC-PK1 cells overexpressing the human PTH1R at 9.5×10^5 receptors/cell (Takasu et al., J. Bone. Miner. Res. 14:11-20, 1999).
HKRK-B7 or LLC-PK1 cells were seeded into a 96-well plate at 1×10^5 cells/well and incubated overnight. On the following day, 50 μl of cAMP assay buffer (DMEM, 2 mM IBMX, 0.2 mg/ml bovine serum albumin, 35 mM Hepes-NaOH, pH 7.4) containing human PTH(1-34) or each compound was added and the plate was placed in a 37° C. incubator. The cells were incubated for 20 minutes. After removing the medium, the cells were washed with 100 μl of cAMP assay buffer once. The plate was placed on dry ice powder to freeze the cells and then removed from the dry ice. The cells were lysed with 40 μl of 50 mM HCl and frozen again on dry ice. The amount of intracellular cAMP produced was measured using a commercially available cAMP EIA kit (Biotrack cAMP EIA system, GE health care).
Analyses were performed using a variable gradient S-shaped dose-response curve equation.

normal rats = test: Growth plate cartilage histology after four weeks of repeated oral administration to normal rats; type: in vivo, rat
Procedure: Female RccHan: WIST rats obtained from Japan Laboratory Animals Inc. were acclimated for at least one week under standard laboratory conditions of 20° C. to 26° C. and 30% to 70% humidity, and then used in experiments. The rats had free access to tap water and a standard rodent diet (CE-2, Clea Japan Inc.) containing 1.1% calcium, 1.0% phosphoric acid, and 250 IU/100 g vitamin D3.
After body weight measurement for the six-week old rats, they were divided into groups so that the average body weight of each group of ten rats would be even. From the day following group division, all rats were administered once a day repeatedly for four weeks. The solvent (vehicle) was orally administered to the Vehicle-Control group. To the Compound 7-6 mg/kg group, Compound 7-60 mg/kg group, and Compound 7-600 mg/kg group, Compound 7 suspended in the vehicle was administered orally at a dose of 6 mg/kg, 60 mg/kg, and 600 mg/kg, respectively. For all groups, the volume of administration was 2 mL/kg. Propylene glycol (special grade, Kanto Chemical Co., Inc.) was used for the vehicle. The rats were euthanized under anesthesia one day after the final administration by collecting blood from the abdominal aorta, and then autopsy was performed to collect the femur. The femur was fixed using a 10% neutral buffered formalin solution, and after demineralization, samples of paraffin-embedded tissue sections (hematoxylin-eosin stained) were prepared. Distal ends of the femur of the produced samples were observed histopathologically under a light microscope.

[3] = 60 mg/kg oral once a day for four weeks, 10 per group
[4] = 600 mg/kg oral once a day for four weeks, 10 per group

For `Cc1cc(N2C(=O)NC(=O)C2(C)C)cc(C)c1CCS(=O)(=O)N1CCC2(CC1)N=C(c1ccc(OC(F)(F)F)cc1)NC2=O` [Compound 7, 1-(3,5-dimethyl-4-(2-((4-oxo-2-(4-(trifluoromethoxy)phenyl)-1,3,8-triazaspiro[4.5]deca-1-en-8-yl)sulfonyl)ethyl)phenyl)-5,5-dimethylimidazolidine-2,4-dione], the “area of the lesion site in the articular cartilage of the lower leg bone” value [1] was “reduce the area of the lesion site in a dose-dependent manner”, the “alkaline phosphatase activity (alkaline phosphatase staining)” value ([2]; cultured for 14 days) was “suppressed alkaline phosphatase activity in a concentration-dependent manner” and the “alizarin red staining property (calcification)” value ([2]; cultured for 21 days) was “suppressed the alizarin staining property in a concentration-dependent manner”. The EC20 (human PTH1R) was 1.1 µM, the “Number of cases in which growth plate cartilage thickening was observed, Grade 1” value (normal rats; [3]) was 5 and the “Number of cases in which growth plate cartilage thickening was observed, Grade 2” value (normal rats; [3]) was 3. For the same compound, the “Number of cases in which growth plate cartilage thickening was observed, Overall” value (normal rats; [3]) was 8, the “Number of cases in which growth plate cartilage thickening was observed, Grade 3” value (normal rats; [4]) was 1 and the “Number of cases in which growth plate cartilage thickening was observed, Grade 4” value (normal rats; [4]) was 9. For the same compound, the “Number of cases in which growth plate cartilage thickening was observed, Overall” value (normal rats; [4]) was 10, the “thickening of the femoral growth plate cartilage in comparison to the Vehicle-Control group (in words)” value (normal rats; 6, 60, 600 mg/kg oral once a day for four weeks) was “dose-dependent thickening” and the “width of a representative growth plate cartilage” value (normal rats; one individual of the 600 mg/kg group, from the tissue image of FIG. 8 (Vehicle-Control individual approximately 390 μm)) was “approximately 2940 μm”.

From US9993462B2, “Hydantoin derivative-containing pharmaceutical composition” (Chugai Seiyaku Kabushiki Kaisha, priority 2014, dated 2018)
